Experiment [1] concerns the target T1, wt p53 core domain (DNA Binding Domain; p53DBD; residues 94–312) (Homo sapiens, UniProt P04637).
T1 construct: residues 94–312; host or cells: E. coli BL21 (DE3)-[pLys-S]
Description: Differential scanning fluorimetry (DSF) thermostability. The following applies: 13d 2.5 mM, MQ 2 mM; for Tm of the wt p53DBD: 5% DMSO, mean ± SD, three assays. On the procedure:
Expression of wt p53 core domain. The wt p53DBD was expressed in E. coli BL21 (DE3)-[pLys-S] in fusion with an N-terminal 21-residue tag containing the hexa-histidyl peptide (His6) and the thrombin recognition sequence, using the pET15b-based expression construct.
For protein expression 10 mL of an overnight (ON) culture was used to inoculate 1 L of LB medium supplemented with 1 mL of ampicillin 100 mg/mL and 1mL of zinc sulphate 100 mM. Culture medium was incubated at 37 °C, 140 rpm till an OD600nm of ~0.5. Protein expression was then induced by adding 0.5 mL of isopropyl β-D-1-thiogalactopyranoside (IPTG) 1M (Cfinal = 0.5 mM) and bacterial growth at 27 °C, 120 rpm ON. E. coli cells were pelleted by centrifugation for 10 min, 4000 rpm, at 4 °C. The cellular pellet was resuspended in 10 mL of Lysis buffer (Sodium phosphate 50 mM; NaCl 300 mM; glycerol 10%, pH 7.4) supplemented with 1mg/mL Lysozyme (Biochemica Applichem Panreac), 1 mM of phenylmethanesulfonyl fluoride (PMSF) (Merck), 5 µg of DNAse I (Panreac applichem) and 0.8% of Triton X-100 (Merck). After a first step of chemical lysis (30 min incubation, at 4 °C), cells were further disrupted by four cycles of sonication, at 4 °C, during 60 s at 50% duty free cycle on a Vibra Cell (Media Cibernetics). The lysate was subsequently cleared by centrifugation at 10,000 rpm, 40 min, at 4 °C and the supernatant containing the soluble proteins were collected.
Purification of human wt p53DBD and His6-tag removal. Immobilized Metal Affinity Chromatography (IMAC) was performed to purify the wt p53DBD using a nickel-nitrilotriacetic acid (Ni-NTA) agarose resin (QIAGEN). Briefly, 1 mL of Ni^2+ resin was pre-equilibrated using MilliQ water (3 × 1 mL) and Lysis buffer containing 10 mM imidazole (3 × 1 mL). The soluble fraction of cellular lysate was supplemented with 6.8 µL of β-mercaptoethanol and 33.2 µL of imidazole 3 M to obtain the final concentrations of […] and 10 mM, respectively. The lysate was added to the pre-equilibrated resin and protein binding was performed by incubation on an orbital shaker for one hour at 4 °C. The suspension was added to a 9 cm polypropylene conical column (Poly-Prep columns; BioRad) and protein purification was performed by gravity flow with an imidazole gradient consisting of three washing steps (2 × 5 mL of Lysis buffer, 20 mM imidazole; 2 × 5 mL of Lysis buffer, 50 mM imidazole; and 1 × 2.5 mL Lysis buffer, 75 mM imidazole) and an elution step with 5 × 500 µL of Lysis buffer, 250 mM imidazole. Protein eluted fractions were assessed by SDS-PAGE and Coomassie staining. Size exclusion chromatography was performed on the pooled protein eluted fractions, using an AKTA prime plus system (GE Healthcare) equipped with a UV detector (280 nm), a HiLoad 16/60, Superdex 200 prep grade column (GE Healthcare) and SEC buffer (25 mM potassium phosphate buffer, 150 mM NaCl, pH 7.5). The fractions corresponding to the wt p53DBD monomers were collected and treated with thrombin (8 units of thrombin/mg wt p53DBD). The thrombin cleavage was conducted for 18 h at rt at pH 7.4 in the assay buffer recommended by the supplier. Before and after digestion protein concentration was determined through Bradford method.
Thermostability of wt p53DBD core domain assessed by differential scanning fluorimetry (DSF). An amount of 5 μg of thrombin-cleaved wt p53DBD was incubated with testing compounds (2.5 mM) in 25 mM potassium phosphate buffer and 150 mM NaCl, pH 7.5 in a final volume of 50 µL containing 2 µL of 1 mM DTT or 1 mM TCEP to promote p53 core domain redox control, and Sypro Orange at 2.5x final concentration. The fluorescence was assessed on a C1000 Touch thermal cycler equipped with a CFX96 optical reaction module (BioRad) and the FRET channel (λexc 450–490 nm and λem 560–580 nm). Temperature was ramped from 20 to 90 °C with a rate of 0.2 °C/12 sec. The Tm values were calculated using Origin 8 Software. […]

For experiment [2], the system named is HCT116 p53−/− cells. Description: Antiproliferative activity, sulforhodamine B (SRB) assay. The settings on record: 48 h treatment, mean ± SEM of 3–5 independent experiments, read-out: HCT116 p53−/− GI50. The format is cell-based, human. The procedure:
(§1) Tumor cells were cultured in RPMI-1640 with UltraGlutamine (Lonza, VWR), supplemented with 10% fetal bovine serum (FBS; Gibco, Alfagene) and maintained in a humidified incubator at 37 °C with 5% CO2. Cell lines were seeded in 96-well plates at the cells/well density of 5.0 × 10^3.

In experiment [3] the test system is HCT116 p53+/+ cells. Described as above. The format is cell-based, human. On the procedure: as §1

Like-named read-outs stand apart in the source and are kept apart here.

T1 sequence (P04637 94-312): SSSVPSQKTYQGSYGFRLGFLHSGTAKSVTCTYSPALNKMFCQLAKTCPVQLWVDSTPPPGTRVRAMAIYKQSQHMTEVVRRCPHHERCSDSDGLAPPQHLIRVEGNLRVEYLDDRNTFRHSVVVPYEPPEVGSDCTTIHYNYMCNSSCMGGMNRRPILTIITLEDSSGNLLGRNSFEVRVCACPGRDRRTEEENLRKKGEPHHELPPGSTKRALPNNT

Regarding `CCCn1c(Br)c(C[C@H]2CO[C@]3(c4ccccc4)c4ccccc4C(=O)N23)c2ccccc21` [Compound 13d, (3S, 9bR)-3-((2-bromo-1-propyl-1H-indol-3-yl)methyl)-9b-phenyl-2,3-dihydrooxazolo[2,3-a]isoindol-5(9bH)-one], the “ΔTm of the wt p53DBD” value in experiment [1] (DTT 1 mM) was “did not increase the wt p53DBD Tm”; in experiment [1] (TCEP 1 mM), 10.4 °C. Further, the figures for the “Tm of the wt p53DBD” value in experiment [1] (DTT (1 mM)) and in experiment [1] (TCEP (1 mM)) were 40.51 ± 0.09 °C and 51.38 ± 0.38 °C, respectively. Besides, the ΔTm at 2500 µM in experiment [1] (TCEP 1 mM) was 10.4 °C. Further, the GI50 was found to be 7.45 ± 0.95 µM in experiment [2]; 7.5 µM in experiment [2] (Homo sapiens, HCT-116, 48 h); 4 ± 0.5 µM in experiment [3] (Homo sapiens, HCT-116, 48 h treatment, mean ± SEM of 3–5 independent experiments, read-out: HCT116 p53+/+ GI50). For the same molecule, in experiment [3] (HCT116 p53+/+), the “more active than SLMP53-2 (7)” value stood at 2 fold. In addition, the “S.I. (selectivity index)” value in experiment [3] (HCT116 p53−/− versus HCT116 p53+/+) was determined as 1.9.

Values taken from article PMC9967700, “Metabolism-Guided Optimization of Tryptophanol-Derived Isoindolinone p53 Activators” (Pharmaceuticals, 2023).
